Results published in patent US20120015907A1, “Furopyridine compounds and uses thereof” (NOVARTIS AG, priority 2010, published 2012).

Legend:
[1] = system: HCV replicon I389luc-ubi-neo/NS3-3'/ET in ET (Huh-lucubineo-ET) cells; test: Replicon assay (Biological Example 2), luciferase read-out; format: cell-based; settings: Hepatitis C virus, luciferase activity 48 hours after compound addition
Description: A cell line, ET (Huh-lucubineo-ET) is used for screening of compounds for inhibiting HCV RNA dependent RNA polymerase. The ET cell line is stably transfected with RNA transcripts harboring a I389luc-ubi-neo/NS3-3′/ET; replicon with firefly luciferase-ubiquitin-neomycin phosphotransferase fusion protein and EMCV-IRES driven NS3-5B polyprotein containing the cell culture adaptive mutations (E1202G; […]; K1846T) (Krieger at al, 2001 and unpublished). The ET cells are grown in DMEM (Dulbeco's Modified Eagle's Medium), supplemented with 10% fetal calf serum, 2 mM Glutamine, Penicillin (100 IU/mL)/Streptomycin (100 μg/mL), 1× nonessential amino acids, and 250 μg/mL G418 (“Geneticin”). Reagents are all available through Life Technologies (Bethesda, Md.). The cells are plated at 0.5-1.0×10^4 cells/well in the 96 well plates and incubated for 24 hrs before adding test compound. The compounds are added to the cells to achieve a final concentration of 0.1 nM to 50 μM and a final DMSO (dimethylsulfoxide) concentration of 0.5%. Luciferase activity is measured 48 hours later by adding a lysis buffer and the substrate (Catalog number Glo-lysis buffer E2661 and Bright-Glo luciferase system E2620 Promega, Madison, Wis.). Cells should not be too confluent during the assay. Percent inhibition of replication data is plotted relative to no compound control. To determine the EC50 (effective concentration at which 50% of the maximum inhibition is observed), a 10 point, 3-fold serial dilution for each compound is used, which spans a concentration range of 1000 fold. EC50 values were calculated by fitting % inhibition at each concentration to the following equation:
% inhibition=100%/[(EC50/[I])^b+1]
where b is Hill's coefficient.

HCV polymerase = target: T1, HCV polymerase (Hepatitis C virus genotype 1b, UniProt Q9WMX2); test: biochemical; settings: polymerase assay of Biological Example 1; read-out: NS5B polymerase IC50
T1 construct: (His)6 (C)

CNC(=O)c1c(-c2ccc(C)cc2)oc2nc(N(CCCC(C(=O)O)c3ccccc3)S(C)(=O)=O)c(C3CC3)cc12 (stereo not drawn) [Example 28.5, 5-(N-(5-cyclopropyl-3-(methylcarbamoyl)-2-p-tolylfuro[2,3-b]pyridin-6-yl)methylsulfonamido)-2-phenylpentanoic acid]
IC50 [1]: ≤ 100 nM
IC50 (HCV polymerase): 1 nM

CNC(=O)c1c(-c2ccc(F)cc2)oc2nc(N(CCC(C)O)S(C)(=O)=O)c(C3CC3)cc12 (stereo not drawn) [Example 26.5, 5-cyclopropyl-2-(4-fluorophenyl)-6-(N-(3-hydroxybutyl)methylsulfonamido)-N-methylfuro[2,3-b]pyridine-3-carboxamide]
IC50 [1]: ≤ 100 nM
IC50 (HCV polymerase): 10 nM

CNC(=O)c1c(-c2ccc(F)cc2)oc2nc(N(CCCS(C)(=O)=O)S(C)(=O)=O)c(C3CC3)cc12 [Example 24.01]
IC50 [1]: ≤ 100 nM
IC50 (HCV polymerase): 1 nM

CNC(=O)c1c(-c2ccc(Oc3ccccc3)cc2)oc2nc(N(C)S(C)(=O)=O)c(C3CC3)cc12 [Example 16, 5-cyclopropyl-N-methyl-6-(N-methylmethylsulfonamido)-2-(4-phenoxyphenyl)furo[2,3-b]pyridine-3-carboxamide]
IC50 [1]: ≤ 100 nM
IC50 (HCV polymerase): 3 nM

CNC(=O)c1c(-c2ccc(C)cc2)oc2nc(N(CCC(C)O)S(C)(=O)=O)c(C3CC3)cc12 (stereo not drawn) [Example 26.7, 5-cyclopropyl-6-(N-(3-hydroxybutyl)methylsulfonamido)-N-methyl-2-p-tolylfuro[2,3-b]pyridine-3-carboxamide]
IC50 [1]: ≤ 100 nM
IC50 (HCV polymerase): 2 nM

CNC(=O)c1c(-c2ccc(F)cc2)oc2nc(N(CCO)S(C)(=O)=O)c(C3CC3)cc12 [Example 2.2, 5-cyclopropyl-2-(4-fluorophenyl)-6-(N-(2-hydroxyethyl)methylsulfonamido)-N-methylfuro[2,3-b]pyridine-3-carboxamide]
IC50 [1]: ≤ 100 nM
IC50 (HCV polymerase): 54 nM

CNC(=O)c1c(-c2ccc(C3CC3)cc2)oc2nc(N(CCCCS(C)(=O)=O)S(C)(=O)=O)c(C3CC3)cc12 [Example 25.9, 5-cyclopropyl-2-(4-cyclopropylphenyl)-N-methyl-6-(N-(4-(methylsulfonyl)butyl)methylsulfonamido)furo[2,3-b]pyridine-3-carboxamide]
IC50 [1]: ≤ 100 nM
IC50 (HCV polymerase): 3 nM

CNC(=O)c1c(-c2ccc(Cc3ccccc3)cc2)oc2nc(N(CCCCC(=O)O)S(C)(=O)=O)c(C3CC3)cc12 [Example 27.6, 5-(N-(2-(4-benzylphenyl)-5-cyclopropyl-3-(methylcarbamoyl)furo[2,3-b]pyridin-6-yl)methylsulfonamido) pentanoic acid]
IC50 [1]: ≤ 100 nM
IC50 (HCV polymerase): 1 nM

CNC(=O)c1c(-c2ccc(C)cc2)oc2nc(N(CCC[C@@H]3CCCS3(=O)=O)S(C)(=O)=O)c(C3CC3)cc12 [Example 24.7, 5-Cyclopropyl-6-{[3-((R)-1,1-dioxo-tetrahydrothiophen-2-yl)-propyl]-methanesulfonyl-amino}-2-p-tolyl-furo[2,3-b]pyridine-3-carboxylic acid methylamide]
IC50 [1]: ≤ 100 nM
IC50 (HCV polymerase): 5 nM

CNC(=O)c1c(-c2ccc(C3CC3)cc2F)oc2nc(N(C)S(C)(=O)=O)c(C3CC3)cc12 [Example 2.98, 5-cyclopropyl-2-(4-cyclopropyl-2-fluorophenyl)-N-methyl-6-(N-methylmethylsulfonamido)furo[2,3-b]pyridine-3-carboxamide]
IC50 [1]: ≤ 100 nM
IC50 (HCV polymerase): 5 nM

CCc1cc2c(C(=O)NC)c(-c3ccc(F)cc3)oc2nc1N(Cc1cccc(C#N)c1)S(C)(=O)=O [Example 21.99, 6-(N-(3-cyanobenzyl)methylsulfonamido)-5-ethyl-2-(4-fluorophenyl)-N-methylfuro[2,3-b]pyridine-3-carboxamide]
IC50 [1]: ≥ 5000 nM
IC50 (HCV polymerase): 4540 nM

CNC(=O)c1c(-c2ccc(F)cc2)oc2nc(N(C)S(C)(=O)=O)c(C#CCCC(=O)O)cc12 [Example 5, 5-(2-(4-fluorophenyl)-3-(methylcarbamoyl)-6-(N-methylmethylsulfonamido)furo[2,3-b]pyridin-5-yl)pent-4-ynoic acid]
IC50 [1]: ≥ 5000 nM
IC50 (HCV polymerase): 256 nM

CNC(=O)c1c(-c2ccc(F)cc2)oc2nc(N(CCC(C)S(C)(=O)=O)S(C)(=O)=O)c(C3CC3)cc12 (stereo not drawn) [Example 26.6, 5-cyclopropyl-2-(4-fluorophenyl)-N-methyl-6-(N-(3-(methylsulfonyl)butyl)methylsulfonamido)furo[2,3-b]pyridine-3-carboxamide]
IC50 [1]: ≤ 100 nM
IC50 (HCV polymerase): 4 nM

CNC(=O)c1c(-c2ccc(C)cc2)oc2nc(N(CCCCS(C)(=O)=O)S(C)(=O)=O)c(I)cc12 [Example 18.996, 5-iodo-N-methyl-6-(N-(4-(methylsulfonyl)butyl)methylsulfonamido)-2-p-tolylfuro[2,3-b]pyridine-3-carboxamide]
IC50 [1]: ≤ 100 nM
IC50 (HCV polymerase): 4 nM

CCc1cc2c(C(=O)NC)c(-c3ccc(F)cc3)oc2nc1N(CCCCS(C)(=O)=O)S(C)(=O)=O [Example 23, 5-Ethyl-2-(4-fluoro-phenyl)-6-[methanesulfonyl-(4-methanesulfonyl-butyl)-amino]-furo[2,3-b]pyridine-3-carboxylic acid methylamide]
IC50 [1]: ≤ 100 nM
IC50 (HCV polymerase): 22 nM

CCc1ccc(-c2oc3nc(N(CCCCC(=O)O)S(C)(=O)=O)c(C4CC4)cc3c2C(=O)NC)cc1 [Example 27.8, 5-(N-(5-cyclopropyl-2-(4-ethylphenyl)-3-(methylcarbamoyl)furo[2,3-b]pyridin-6-yl)methylsulfonamido) pentanoic acid]
IC50 [1]: ≤ 100 nM
IC50 (HCV polymerase): 1 nM

CCc1ccc(-c2oc3nc(N(C)S(C)(=O)=O)c(C4CC4)cc3c2C(=O)NC)cc1 [Example 2.94, 5-cyclopropyl-2-(4-ethylphenyl)-N-methyl-6-(N-methylmethylsulfonamido)furo[2,3-b]pyridine-3-carboxamide]
IC50 [1]: ≤ 100 nM
IC50 (HCV polymerase): 3 nM

CCc1cc2c(C(=O)NC)c(-c3ccc(F)cc3)oc2nc1N(CCCS(C)(=O)=O)S(C)(=O)=O [Example 21.992, 5-ethyl-2-(4-fluorophenyl)-N-methyl-6-(N-(3-(methylsulfonyl)propyl)methylsulfonamido)furo[2,3-b]pyridine-3-carboxamide]
IC50 [1]: ≤ 100 nM
IC50 (HCV polymerase): 65 nM

CNC(=O)c1c(-c2ccc(F)cc2)oc2nc(N(C)S(C)(=O)=O)c(CCCCC(C)(O)C(C)(C)O)cc12 (stereo not drawn) [Example 4.9, 5-(5,6-dihydroxy-5,6-dimethylheptyl)-2-(4-fluorophenyl)-N-methyl-6-(N-methylmethylsulfonamido)furo[2,3-b]pyridine-3-carboxamide]
IC50 [1]: ≤ 100 nM
IC50 (HCV polymerase): 75 nM

CNC(=O)c1c(-c2ccc(F)cc2)oc2nc(N(C)S(C)(=O)=O)c(CCCCS(=O)(=O)CCC(=O)O)cc12 [Example 4.91, 3-(4-(2-(4-fluorophenyl)-3-(methylcarbamoyl)-6-(N-methylmethylsulfonamido)furo[2,3-b]pyridin-5-yl)butylsulfonyl)propanoic acid]
IC50 [1]: ≥ 5000 nM
IC50 (HCV polymerase): 10 nM

CNC(=O)c1c(-c2ccc(F)cc2)oc2nc(N(C)S(C)(=O)=O)c(C(C)(O)CO)cc12 (stereo not drawn) [Example 9, 5-(1,2-dihydroxypropan-2-yl)-2-(4-fluorophenyl)-N-methyl-6-(N-methylmethylsulfonamido)furo[2,3-b]pyridine-3-carboxamide]
IC50 [1]: ≥ 5000 nM
IC50 (HCV polymerase): 2320 nM

CNC(=O)c1c(-c2ccc(Cl)cc2)oc2nc(N(CCCCC(=O)O)S(C)(=O)=O)c(C3CC3)cc12 [Example 27.5, 5-(N-(2-(4-chlorophenyl)-5-cyclopropyl-3-(methylcarbamoyl)furo[2,3-b]pyridin-6-yl)methylsulfonamido) pentanoic acid]
IC50 [1]: ≤ 100 nM
IC50 (HCV polymerase): 1 nM

CNC(=O)c1c(-c2ccc(C3CC3)cc2)oc2nc(N(CCCC3CCCS3(=O)=O)S(C)(=O)=O)c(C3CC3)cc12 (stereo not drawn) [Example 25.4, 5-Cyclopropyl-2-(4-cyclopropyl-phenyl)-6-{[3-(1,1-dioxo-tetrahydro-thiophen-2-yl)-propyl]-methanesulfonyl-amino}-furo[2,3-b]pyridine-3-carboxylic acid methylamide]
IC50 [1]: ≤ 100 nM
IC50 (HCV polymerase): 1 nM

CNC(=O)c1c(-c2ccc(F)cc2)oc2nc(N(C)S(C)(=O)=O)c(CCCCCNC(=O)OC(C)(C)C)cc12 [Example 14.1, tert-butyl 5-(2-(4-fluorophenyl)-3-(methylcarbamoyl)-6-(N-methylmethylsulfonamido)furo[2,3-b]pyridin-5-yl)pentylcarbamate]
IC50 [1]: ≤ 100 nM

CNC(=O)c1c(-c2ccc(F)cc2)oc2nc(N(CCCC3CCCS3(=O)=O)S(C)(=O)=O)c(C3CC3)cc12 (stereo not drawn) [Example 24.6, 5-Cyclopropyl-6-{[3-(1,1-dioxo-tetrahydrothiophen-2-yl)-propyl]-methanesulfonyl-amino}-2-(4-fluoro-phenyl)-furo[2,3-b]pyridine-3-carboxylic acid methylamide]
IC50 [1]: ≤ 100 nM
